Test results: ChEMBL document CHEMBL5149995, “An Alkynylpyrimidine-Based Covalent Inhibitor That Targets a Unique Cysteine in NF-κB-Inducing Kinase” (J Med Chem, 2021)
In brackets after ≈: the same amount, converted by molar mass. Each block holds one molecule with its values, some of them ahead of it. Activity calls are given as the source filed them. No cut-off for these calls is given here.

How the values were obtained:
[1] = target: Mitogen-activated protein kinase kinase kinase 14 (Homo sapiens, UniProt Q99558, S549D); assay: Inhibition of His6-tagged human NIK (330 to 680 residues) S549D mutant expressed in baculovirus-infected Sf9 cells incubated for 30 mins in presence of ATP by ADP-GloTM assay
[2] = target: Mitogen-activated protein kinase kinase kinase 14 (Homo sapiens) (UniProt Q99558); assay: Covalent binding affinity to NIK (unknown origin) assessed as protein-compound adduct formation by measuring increase in 330Da mass at 100 uM incubated for 6 hrs by mass spectrometry
[3] = target: Mitogen-activated protein kinase kinase kinase 14 (Homo sapiens) (UniProt Q99558); assay: Covalent binding affinity to NIK (unknown origin) assessed as labeling at Cys444 residue using Ala438-Arg451 peptide incubated for 18 hrs measured after tryptic digestion by MS/MS fragmentation spectral analysis
[4] = target: Mitogen-activated protein kinase kinase kinase 9 (Homo sapiens) (UniProt P80192); assay: Inhibition of MLK1 (unknown origin) at 1 uM relative to control
[5] = target: Receptor tyrosine-protein kinase erbB-4 (Homo sapiens) (UniProt Q15303); assay: Inhibition of HER4 (unknown origin) at 1 uM relative to control
[6] = target: T1, Serine/threonine-protein kinase Sgk1 (Homo sapiens) (UniProt O00141); assay: Inhibition of SGK1 (unknown origin) at 1 uM relative to control
T1 sequence (whole entry): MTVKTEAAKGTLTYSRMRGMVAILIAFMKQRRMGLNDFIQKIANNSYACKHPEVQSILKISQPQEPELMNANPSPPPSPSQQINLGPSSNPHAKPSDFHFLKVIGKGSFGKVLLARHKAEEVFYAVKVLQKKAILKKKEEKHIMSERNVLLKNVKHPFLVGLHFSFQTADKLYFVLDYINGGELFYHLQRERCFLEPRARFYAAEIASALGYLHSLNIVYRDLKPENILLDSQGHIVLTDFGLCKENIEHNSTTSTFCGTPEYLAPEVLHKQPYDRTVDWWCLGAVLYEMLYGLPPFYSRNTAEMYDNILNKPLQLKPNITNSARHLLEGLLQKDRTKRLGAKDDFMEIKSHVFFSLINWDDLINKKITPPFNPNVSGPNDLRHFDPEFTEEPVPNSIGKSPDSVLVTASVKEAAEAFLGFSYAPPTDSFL

[7] = target: T2, Mitogen-activated protein kinase kinase kinase 7 (Homo sapiens) (UniProt O43318); assay: Inhibition of TAK1 (unknown origin) at 1 uM relative to control
T2 sequence (whole entry): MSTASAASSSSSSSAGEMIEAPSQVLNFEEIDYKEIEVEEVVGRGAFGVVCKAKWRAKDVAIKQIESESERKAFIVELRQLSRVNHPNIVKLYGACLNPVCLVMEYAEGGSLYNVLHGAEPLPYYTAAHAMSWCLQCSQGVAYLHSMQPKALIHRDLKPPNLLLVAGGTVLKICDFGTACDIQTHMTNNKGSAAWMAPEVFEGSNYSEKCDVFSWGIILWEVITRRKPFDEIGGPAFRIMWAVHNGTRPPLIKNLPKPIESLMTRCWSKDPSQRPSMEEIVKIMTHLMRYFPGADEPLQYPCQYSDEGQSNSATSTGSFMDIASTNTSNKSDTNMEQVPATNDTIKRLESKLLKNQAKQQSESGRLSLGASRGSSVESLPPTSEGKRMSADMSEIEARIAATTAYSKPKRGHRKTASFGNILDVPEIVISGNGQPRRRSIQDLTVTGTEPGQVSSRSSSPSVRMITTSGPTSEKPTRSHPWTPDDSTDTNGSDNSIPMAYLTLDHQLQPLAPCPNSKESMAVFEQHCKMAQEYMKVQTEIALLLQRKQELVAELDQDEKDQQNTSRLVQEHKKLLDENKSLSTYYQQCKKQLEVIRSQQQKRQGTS

[8] = target: Platelet-derived growth factor receptor alpha (Homo sapiens) (UniProt P16234); assay: Inhibition of PDGFRA (unknown origin) at 1 uM relative to control
[9] = target: Tyrosine-protein kinase BTK (Homo sapiens) (UniProt Q06187); assay: Inhibition of BTK (unknown origin) at 1 uM relative to control
[10] = target: Receptor-interacting serine/threonine-protein kinase 2 (Homo sapiens) (UniProt O43353); assay: Inhibition of RIPK2 (unknown origin) at 1 uM relative to control
[11] = target: Aurora kinase B (Homo sapiens) (UniProt Q96GD4); assay: Inhibition of Aurora B (unknown origin) at 1 uM relative to control
Homo sapiens = organism: Homo sapiens; assay: Inhibition of VEGFR (unknown origin) at 1 uM relative to control
[12] = target: Serine/threonine-protein kinase SIK2 (Homo sapiens) (UniProt Q9H0K1); assay: Inhibition of SIK2 (unknown origin) at 1 uM relative to control
Z-138 = assay: Antiproliferative activity against NIK-activated human Z138 cells assessed as inhibition of cell growth incubated for 72 hrs by XTT assay; assay type: functional
Maver1 = assay: Antiproliferative activity against NIK-activated human MAVER-1 cells assessed as inhibition of cell growth incubated for 72 hrs by XTT assay; assay type: functional
MCF7 = assay: Antiproliferative activity against NIK-independent human MCF7 cells assessed as inhibition of cell growth incubated for 72 hrs by XTT assay; assay type: functional
[13] = Lipophilicity, log D of the compound at pH 7.4; assay type: physicochemical; conditions: buffer
[14] = Solubility of the compound; assay type: physicochemical
[15] = Apparent permeability across apical to basolateral side in human Caco-2 cells; assay type: ADME, cell-based
[16] = Apparent permeability across basolateral to apical side in human Caco-2 cells; assay type: ADME, cell-based
[17] = Intrinsic clearance in rat hepatocytes measured per million of cells; assay type: ADME, cell-based, Hepatocyte; conditions: read-out: CLH
[18] = Intrinsic clearance in human hepatocytes measured per million of cells; assay type: ADME, cell-based, Hepatocyte; conditions: read-out: CLH
JIM3 (Homo sapiens) = assay: Antiproliferative activity against NIK-independent human JIM3 cells assessed as inhibition of cell growth incubated for 72 hrs by XTT assay; conditions: JIM3, 72 h

Mitogen-activated protein kinase kinase kinase 14, sequence (Q99558 whole entry S549D, the tested form may be a part): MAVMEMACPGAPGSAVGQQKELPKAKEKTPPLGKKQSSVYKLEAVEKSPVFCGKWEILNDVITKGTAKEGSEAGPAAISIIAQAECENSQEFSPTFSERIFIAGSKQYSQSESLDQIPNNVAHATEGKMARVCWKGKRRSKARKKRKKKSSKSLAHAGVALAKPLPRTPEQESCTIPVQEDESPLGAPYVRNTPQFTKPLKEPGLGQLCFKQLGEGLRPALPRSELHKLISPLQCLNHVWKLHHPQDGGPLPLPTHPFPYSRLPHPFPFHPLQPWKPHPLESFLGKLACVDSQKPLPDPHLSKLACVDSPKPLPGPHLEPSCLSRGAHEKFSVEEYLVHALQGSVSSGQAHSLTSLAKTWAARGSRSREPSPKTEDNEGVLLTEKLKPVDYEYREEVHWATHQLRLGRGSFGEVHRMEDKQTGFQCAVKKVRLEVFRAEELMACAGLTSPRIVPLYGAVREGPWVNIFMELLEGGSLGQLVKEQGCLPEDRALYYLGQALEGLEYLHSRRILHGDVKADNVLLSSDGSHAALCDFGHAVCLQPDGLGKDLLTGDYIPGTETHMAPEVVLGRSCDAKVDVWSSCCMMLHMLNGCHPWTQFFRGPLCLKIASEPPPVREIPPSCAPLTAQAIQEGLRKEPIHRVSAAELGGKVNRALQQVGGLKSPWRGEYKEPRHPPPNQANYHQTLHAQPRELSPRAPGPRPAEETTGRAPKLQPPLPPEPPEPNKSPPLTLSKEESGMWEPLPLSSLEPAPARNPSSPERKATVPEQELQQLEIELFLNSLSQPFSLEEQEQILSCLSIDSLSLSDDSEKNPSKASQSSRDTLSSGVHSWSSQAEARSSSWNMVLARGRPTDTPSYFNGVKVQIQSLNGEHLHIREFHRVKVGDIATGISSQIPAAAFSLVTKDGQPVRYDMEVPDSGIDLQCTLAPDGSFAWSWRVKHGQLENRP
Mitogen-activated protein kinase kinase kinase 14 (Homo sapiens), sequence (Q99558 whole entry, looked up, the tested form may be a part): as the sequence (Q99558 whole entry S549D, the tested form may be a part) above, with D549S counted along it
Aurora kinase B (Homo sapiens), sequence (Q96GD4 whole entry): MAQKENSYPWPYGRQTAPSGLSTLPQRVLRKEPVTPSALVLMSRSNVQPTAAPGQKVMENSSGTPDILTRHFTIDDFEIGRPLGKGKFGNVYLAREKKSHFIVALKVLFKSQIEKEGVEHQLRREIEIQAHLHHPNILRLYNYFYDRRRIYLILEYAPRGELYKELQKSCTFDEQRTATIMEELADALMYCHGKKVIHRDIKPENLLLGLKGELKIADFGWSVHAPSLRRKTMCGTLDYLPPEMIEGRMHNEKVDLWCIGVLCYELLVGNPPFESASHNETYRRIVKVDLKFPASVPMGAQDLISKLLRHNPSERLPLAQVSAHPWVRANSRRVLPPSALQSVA
Receptor-interacting serine/threonine-protein kinase 2 (Homo sapiens), sequence (O43353 whole entry): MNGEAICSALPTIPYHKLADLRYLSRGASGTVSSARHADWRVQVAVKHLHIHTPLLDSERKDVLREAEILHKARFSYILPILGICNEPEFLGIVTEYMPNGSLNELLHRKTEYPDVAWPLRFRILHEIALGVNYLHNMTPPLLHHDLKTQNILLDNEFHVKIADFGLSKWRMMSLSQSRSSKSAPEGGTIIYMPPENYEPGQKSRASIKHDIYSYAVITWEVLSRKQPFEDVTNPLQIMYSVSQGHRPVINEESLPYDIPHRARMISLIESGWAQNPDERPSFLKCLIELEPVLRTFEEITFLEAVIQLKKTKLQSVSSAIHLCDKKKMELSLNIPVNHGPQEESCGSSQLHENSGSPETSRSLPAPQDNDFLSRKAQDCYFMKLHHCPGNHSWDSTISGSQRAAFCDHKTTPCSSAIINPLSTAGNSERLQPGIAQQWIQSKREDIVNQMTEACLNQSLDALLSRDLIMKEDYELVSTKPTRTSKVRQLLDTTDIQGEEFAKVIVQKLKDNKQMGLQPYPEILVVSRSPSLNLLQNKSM
Serine/threonine-protein kinase SIK2 (Homo sapiens), sequence (Q9H0K1 whole entry, looked up): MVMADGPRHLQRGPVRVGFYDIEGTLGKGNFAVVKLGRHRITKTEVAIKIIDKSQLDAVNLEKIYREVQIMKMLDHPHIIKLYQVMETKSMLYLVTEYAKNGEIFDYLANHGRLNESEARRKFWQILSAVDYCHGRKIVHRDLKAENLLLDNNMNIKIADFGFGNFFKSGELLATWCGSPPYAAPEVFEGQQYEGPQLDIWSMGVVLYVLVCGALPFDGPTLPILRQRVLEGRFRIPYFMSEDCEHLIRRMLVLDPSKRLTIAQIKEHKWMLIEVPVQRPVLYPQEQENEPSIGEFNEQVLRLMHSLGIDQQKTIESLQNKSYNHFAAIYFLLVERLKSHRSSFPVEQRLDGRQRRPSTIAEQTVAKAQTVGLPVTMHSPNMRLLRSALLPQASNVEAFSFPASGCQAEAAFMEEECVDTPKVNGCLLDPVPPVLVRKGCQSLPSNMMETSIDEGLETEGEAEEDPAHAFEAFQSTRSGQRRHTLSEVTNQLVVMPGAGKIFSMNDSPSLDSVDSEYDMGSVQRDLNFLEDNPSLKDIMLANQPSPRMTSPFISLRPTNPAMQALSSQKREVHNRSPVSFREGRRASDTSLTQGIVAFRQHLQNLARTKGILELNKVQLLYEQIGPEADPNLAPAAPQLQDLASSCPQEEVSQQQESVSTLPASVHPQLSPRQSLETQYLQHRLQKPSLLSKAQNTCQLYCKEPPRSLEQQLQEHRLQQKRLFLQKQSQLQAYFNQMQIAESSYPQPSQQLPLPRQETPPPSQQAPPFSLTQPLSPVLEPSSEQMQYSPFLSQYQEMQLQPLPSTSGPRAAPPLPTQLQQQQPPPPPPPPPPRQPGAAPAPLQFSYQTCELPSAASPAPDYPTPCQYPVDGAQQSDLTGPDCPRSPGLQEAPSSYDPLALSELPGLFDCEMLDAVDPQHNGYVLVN
Tyrosine-protein kinase BTK (Homo sapiens), sequence (Q06187 whole entry): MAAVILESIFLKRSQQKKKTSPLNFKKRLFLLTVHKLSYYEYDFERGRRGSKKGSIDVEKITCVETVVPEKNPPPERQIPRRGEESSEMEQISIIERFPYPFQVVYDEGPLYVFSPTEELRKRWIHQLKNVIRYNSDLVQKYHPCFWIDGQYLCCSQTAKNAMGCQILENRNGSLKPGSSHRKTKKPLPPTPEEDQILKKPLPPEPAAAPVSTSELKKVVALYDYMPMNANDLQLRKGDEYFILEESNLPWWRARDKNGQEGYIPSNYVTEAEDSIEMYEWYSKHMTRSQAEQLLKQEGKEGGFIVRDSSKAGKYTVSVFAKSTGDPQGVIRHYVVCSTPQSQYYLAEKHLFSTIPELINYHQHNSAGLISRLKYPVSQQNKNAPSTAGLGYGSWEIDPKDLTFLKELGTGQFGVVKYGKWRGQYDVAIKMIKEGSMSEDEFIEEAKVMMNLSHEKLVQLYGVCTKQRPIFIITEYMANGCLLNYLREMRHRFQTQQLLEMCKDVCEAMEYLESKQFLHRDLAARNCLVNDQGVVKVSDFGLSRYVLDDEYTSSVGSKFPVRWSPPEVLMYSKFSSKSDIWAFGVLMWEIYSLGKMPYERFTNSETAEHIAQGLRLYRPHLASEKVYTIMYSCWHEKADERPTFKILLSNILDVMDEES
Platelet-derived growth factor receptor alpha (Homo sapiens), sequence (P16234 whole entry): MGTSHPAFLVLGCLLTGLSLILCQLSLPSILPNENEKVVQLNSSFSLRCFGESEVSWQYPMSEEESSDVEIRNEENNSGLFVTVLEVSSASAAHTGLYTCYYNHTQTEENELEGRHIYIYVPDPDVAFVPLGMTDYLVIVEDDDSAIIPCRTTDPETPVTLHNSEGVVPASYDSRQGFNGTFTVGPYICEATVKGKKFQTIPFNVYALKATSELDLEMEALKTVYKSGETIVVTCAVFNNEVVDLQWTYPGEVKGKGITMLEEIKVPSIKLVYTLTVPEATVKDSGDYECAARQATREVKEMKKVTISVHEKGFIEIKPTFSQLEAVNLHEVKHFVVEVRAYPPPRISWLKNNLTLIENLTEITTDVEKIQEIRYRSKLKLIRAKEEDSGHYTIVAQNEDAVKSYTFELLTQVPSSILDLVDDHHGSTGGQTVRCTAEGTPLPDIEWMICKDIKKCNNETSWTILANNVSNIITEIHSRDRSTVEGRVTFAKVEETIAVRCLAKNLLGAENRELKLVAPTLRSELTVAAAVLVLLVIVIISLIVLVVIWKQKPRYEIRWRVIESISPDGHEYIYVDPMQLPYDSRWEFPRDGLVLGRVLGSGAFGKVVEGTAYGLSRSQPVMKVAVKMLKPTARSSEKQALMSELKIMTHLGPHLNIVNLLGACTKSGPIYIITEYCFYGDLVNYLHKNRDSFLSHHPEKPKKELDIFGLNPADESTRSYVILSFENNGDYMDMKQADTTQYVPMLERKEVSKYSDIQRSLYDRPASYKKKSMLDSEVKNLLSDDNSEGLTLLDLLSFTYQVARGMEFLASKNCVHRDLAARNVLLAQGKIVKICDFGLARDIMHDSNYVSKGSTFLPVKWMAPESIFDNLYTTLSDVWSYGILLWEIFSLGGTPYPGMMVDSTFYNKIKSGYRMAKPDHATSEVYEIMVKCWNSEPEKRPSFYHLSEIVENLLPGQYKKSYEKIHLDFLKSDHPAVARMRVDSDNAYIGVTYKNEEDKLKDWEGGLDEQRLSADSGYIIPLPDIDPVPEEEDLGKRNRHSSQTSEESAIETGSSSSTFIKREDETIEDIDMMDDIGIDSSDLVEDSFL

Structure (SMILES): C#Cc1ccnc(C#Cc2ccc3ncn(-c4ccnc(N)n4)c3c2)n1
- IC50 [1]: 0.2 µM
- Activity [2]: Active
- Activity [3]: Active
- inhibition [4]: > 50%
- inhibition [5]: > 50%
- inhibition [6]: > 50%
- inhibition [7]: > 50%
- inhibition [8]: > 50%
- inhibition [9]: > 50%
- inhibition [10]: > 50%
- inhibition [11]: > 50%
- inhibition (Homo sapiens): > 50%
- inhibition [12]: > 50%
- GI50 (Z-138): 0.631 µM
- GI50 (Maver1): 0.398 µM
- GI50 (MCF7): 0.501 µM
- logD [13]: 2.8
- solubility [14]: 3.8 µM (≈ 1.28 µg/mL)
- Papp A→B [15]: 0.33 ×10⁻⁶ cm/s
- Papp B→A [16]: 0.22 ×10⁻⁶ cm/s
- hepatocyte CLint [17]: 915 µL/min/1e6 cells
- hepatocyte CLint [18]: 382 µL/min/1e6 cells
- GI50 (JIM3 (Homo sapiens)): 0.501 µM

Structure (SMILES): C#Cc1ccc2ncn(-c3ccnc(N)n3)c2c1
- IC50 [1]: 0.251 µM

Structure (SMILES): C#Cc1cncc(C#Cc2ccc3ncn(-c4ccnc(N)n4)c3c2)c1
- IC50 [1]: 63.1 µM

Structure (SMILES): C=CC(=O)NCC#Cc1ccc2ncn(-c3ccnc(N)n3)c2c1
- IC50 [1]: 6.31 µM

Structure (SMILES): C=Cc1ccnc(C#Cc2ccc3ncn(-c4ccnc(N)n4)c3c2)c1
- IC50 [1]: 1.58 µM
- GI50 (Z-138): 0.398 µM
- GI50 (Maver1): 0.501 µM
- GI50 (MCF7): 1.26 µM
- GI50 (JIM3 (Homo sapiens)): 1.58 µM

- GI50 (MCF7): > 31.6 µM
Structure (SMILES): COc1cc(C(N)=O)nc(-c2cccc(C#C[C@]3(O)CCN(C)C3=O)c2)c1
- GI50 (Z-138): 20 µM
- GI50 (Maver1): 3.98 µM
- GI50 (JIM3 (Homo sapiens)): > 31.6 µM

Structure (SMILES): C#Cc1ncc(C#Cc2ccc3ncn(-c4ccnc(N)n4)c3c2)cn1
- IC50 [1]: 79.4 µM

Structure (SMILES): C=CC(=O)NCCCc1ccc2ncn(-c3ccnc(N)n3)c2c1
- IC50 [1]: 501 µM

Structure (SMILES): CC(=O)NCCCc1ccc2ncn(-c3ccnc(N)n3)c2c1
- IC50 [1]: > 100 µM

Structure (SMILES): C#Cc1cnc(C#Cc2ccc3ncn(-c4ccnc(N)n4)c3c2)nc1
- IC50 [1]: 25.1 µM

Structure (SMILES): C#Cc1ccnc(C#Cc2ccc3ncn(-c4ccnc(N)n4)c3c2)c1
- IC50 [1]: 0.316 µM
- GI50 (Z-138): 7.94 µM
- GI50 (Maver1): 10 µM
- GI50 (MCF7): > 10 µM
- GI50 (JIM3 (Homo sapiens)): > 7.94 µM

Structure (SMILES): C=Cc1ccnc(C#Cc2ccc3ncn(-c4ccnc(N)n4)c3c2)n1
- IC50 [1]: 1.58 µM
- GI50 (Z-138): 1 µM
- GI50 (Maver1): 1.26 µM
- GI50 (MCF7): 0.631 µM
- GI50 (JIM3 (Homo sapiens)): 1.58 µM

Structure (SMILES): CCc1ccc2ncn(-c3ccnc(N)n3)c2c1
- IC50 [1]: 79.4 µM

Structure (SMILES): C#Cc1cc(C#Cc2ccc3ncn(-c4ccnc(N)n4)c3c2)ccn1
- IC50 [1]: 31.6 µM

Structure (SMILES): C#Cc1cccc(C#Cc2ccc3ncn(-c4ccnc(N)n4)c3c2)n1
- IC50 [1]: 3.16 µM

Structure (SMILES): C#Cc1nccc(C#Cc2ccc3ncn(-c4ccnc(N)n4)c3c2)n1
- IC50 [1]: 39.8 µM

Structure (SMILES): C=Cc1cc(C#Cc2ccc3ncn(-c4ccnc(N)n4)c3c2)ccn1
- IC50 [1]: 20 µM

Structure (SMILES): C#Cc1cc(C#Cc2ccc3ncn(-c4ccnc(N)n4)c3c2)ncn1
- IC50 [1]: 50.1 µM

Structure (SMILES): C=Cc1nccc(C#Cc2ccc3ncn(-c4ccnc(N)n4)c3c2)n1
- IC50 [1]: 39.8 µM

Structure (SMILES): Cc1ccnc(C#Cc2ccc3ncn(-c4ccnc(N)n4)c3c2)n1
- IC50 [1]: 1.58 µM

Structure (SMILES): C=CC(=O)NCCCCc1ccc2ncn(-c3ccnc(N)n3)c2c1
- IC50 [1]: 501 µM

Structure (SMILES): CC(O)(C#Cc1ccc2c(c1)N(c1nc(N)ncc1Cl)CC2)c1nccs1 (stereo not drawn)
- IC50 [1]: 0.00398 µM

Structure (SMILES): CC(=O)NCCCCc1ccc2ncn(-c3ccnc(N)n3)c2c1
- IC50 [1]: 398 µM

Structure (SMILES): COCCOc1cnc(N)nc1-c1c[nH]c2ccc(C#CC(C)(C)O)cc12
- IC50 [1]: 0.0398 µM

Structure (SMILES): C=Cc1ccc(C#Cc2ccc3ncn(-c4ccnc(N)n4)c3c2)cn1
- IC50 [1]: 79.4 µM

Structure (SMILES): C#Cc1cncc(C#Cc2ccc3ncn(-c4ccnc(N)n4)c3c2)n1
- IC50 [1]: 6.31 µM
